Data: US8133847B2, “Pyrido[2,3-B]pyrazine derivatives useful as herbicidal compounds” (Syngenta Limited, priority 2006, dated 2012)

Legend:
Assay in all cases: Example B2 herbicidal action, post-emergence, pots in glasshouse
Type in all cases: in vivo
[1] = system: Echinochloa crusgalli (ECHCG); details: Application post-emergence, evaluated after 13 days (100=total damage to plant; 0=no damage to plant)
Method: (§1) Seeds of a variety of test species were sown in standard soil in pots. After 8 days cultivation (post-emergence) under controlled conditions in a glasshouse (at 24/16° C., day/night; 14 hours light; 65% humidity), the plants were sprayed with an aqueous spray solution derived from the formulation of the technical active ingredient in acetone/water (50:50) solution containing 0.5% Tween 20 (polyoxyethylene sorbitan monolaurate, CAS RN 9005-64-5). The test plants were then grown in a glasshouse under controlled conditions in a glasshouse (at 24/16° C., day/night; 14 hours light; 65% humidity) and watered twice daily. After 13 days, the test was evaluated (100=total damage to plant; 0=no damage to plant).

[2] = system: Solanum nigrum (SOLNI); details: Application post-emergence, evaluated after 13 days
Method: as §1

[3] = system: Ipomea hederaceae (IPOHE); details: Application post-emergence, evaluated after 13 days (100=total damage to plant; 0=no damage to plant)
Method: as §1

[4] = system: Setaria faberi (SETFA); details: Application post-emergence, evaluated after 13 days (100=total damage to plant; 0=no damage to plant)
Method: as §1

[5] = system: Amaranthus retroflexus (AMARE); details: Application post-emergence, evaluated after 13 days (100=total damage to plant; 0=no damage to plant)
Method: as §1

Row | Structure (SMILES) | damage to plant, Echinochloa crusgalli (ECHCG) [1] | damage to plant, Solanum nigrum (SOLNI) [2] | damage to plant, Ipomea hederaceae (IPOHE) [3] | damage to plant, Setaria faberi (SETFA) [4] | damage to plant, Amaranthus retroflexus (AMARE) [5]
1 | CCn1c(=O)c(-c2ccccc2OC(F)F)c(OC(=O)C(C)C)c2nccnc21 [Compound C165] | 1 | 10 | 7 | 2 | 9
2 | Cn1c(=O)c(-c2cc(F)c(F)cc2Cl)c(OC(=O)C(C)(C)C)c2nccnc21 [Compound C162] | 8 | 10 | 7 | 7 | 9
3 | CCn1c(=O)c(-c2cc(F)ccc2Cl)c(OC(=O)C(C)C)c2nccnc21 [Compound C150] | 3 | 10 | 9 | 6 | 10
4 | O=c1[nH]c2nccnc2c(O)c1-c1c(F)ccc(Br)c1Cl [Compound A40] | 5 | 8 | 0 | 9 | 9
5 | CC(C)(C)C(=O)Oc1c(-c2ccccc2OC(F)F)c(=O)[nH]c2nccnc12 [Compound B59] | 0 | 2 | 3 | 4 | 0
6 | O=c1[nH]c2nccnc2c(O)c1-c1cc(F)c(Cl)cc1Cl [Compound A39] | 8 | 6 | 0 | 7 | 8
7 | Cn1c(=O)c(-c2c(F)ccc(Br)c2Cl)c(OC(=O)C(C)(C)C)c2nccnc21 [Compound C145] | 1 | 9 | 6 | 0 | 7
8 | CCn1c(=O)c(-c2cc(F)ccc2Cl)c(OC(=O)C(C)(C)C)c2nccnc21 [Compound C151] | 0 | 6 | 4 | 0 | 7
9 | Cn1c(=O)c(-c2ccccc2OC(F)F)c(OC(=O)C(C)(C)C)c2nccnc21 [Compound C168] | 3 | 8 | 5 | 2 | 10
10 | Cn1c(=O)c(-c2ccc(C(F)(F)F)cc2[N+](=O)[O-])c(OC(=O)C(C)(C)C)c2nccnc21 [Compound C140] | 3 | 9 | 2 | 0 | 8
11 | CC(C)C(=O)Oc1c(-c2cc(F)ccc2Cl)c(=O)[nH]c2nccnc12 [Compound B45] | 8 | 9 | 0 | 8 | 4
12 | CCn1c(=O)c(-c2ccccc2OC(F)F)c(OC(=O)C(C)(C)C)c2nccnc21 [Compound C169] | 0 | 9 | 7 | 0 | 9
13 | Cc1ccc(C)c(-c2c(O)c3nccnc3[nH]c2=O)c1 [Compound A37] | 7 | 6 | 1 | 7 | 4
14 | CC(C)C(=O)Oc1c(-c2c(F)ccc(Br)c2Cl)c(=O)n(C)c2nccnc12 [Compound C144] | 4 | 10 | 9 | 2 | 10
15 | Cc1ccc(C)c(-c2c(OC(=O)C(C)C)c3nccnc3n(C)c2=O)c1 [Compound C133] | 6 | 9 | 3 | 4 | 9
